Experimental data as given in patent US20230148070A1, “AMINO ACID DERIVATIVES AND THEIR USE AS FLAVOR MODIFIERS” (Firmenich SA, priority 2020, published 2023).

Legend:
[1] = Sensory Testing 1: Savory Model (trained panel, umami and saltiness); assay type: in vivo; conditions: 10 ppm; panel of 20-22 trained panelists; score on scale -5 (strong masking) to 5 (strong enhancing), 0 = reference water solution with 0.25% NaCl and 0.05% MSG
Protocol: Each of Compound 101, Compound 102, Compound 103, Compound 104, Compound 105, Compound 106, Compound 107, Compound 108 and Compound 109 was tested for taste properties, particularly umami and saltiness. A panel of 20-22 trained panelists evaluated the samples of each test compound at 10 ppm for umami taste properties and saltiness taste properties, and scored the solutions on a scale ranging from −5 to 5 (with −5 denoting a strong masking effect, and 5 denoting a strong enhancing effect, and 0 representing the intensity of a reference water solution containing 0.25% sodium chloride (NaCl) and 0.05% monosodium glutamate (MSG), respectively).

[2] = Sensory Testing 2: Chicken Soup (expert panel, salt, umami, meaty, kokumi); assay type: in vivo; conditions: 10 ppm, panel of 8 experts, score on scale -5 to 5, 0 = reference water solution with 1.26% Chicken base, 0.7% NaCl, 0.04% MSG; for Mouth-coating / Round / Thick: kokumi
Protocol: Each of Compound 103, Compound 104 and Compound 109 was tested for flavor, taste and mouthfeel properties, particularly kokumi. A panel of 8 experts evaluated the samples of each test compound at 10 ppm for salt, umami, meaty, and kokumi (mouthcoating, round and thick) properties, and scored the solutions on a scale ranging from −5 to 5 (with −5 denoting a strong masking effect, and 5 denoting a strong enhancing effect, and 0 representing the intensity of a reference water solution containing 1.26% Chicken base, 0.7% NaCl, and 0.04% MSG, respectively).

| Compound | Saltiness [1] | Umami [1] | Meaty [2] | Saltiness [2] | Umami [2] | Mouth-coating [2] | Round [2] | Thick [2] |
| --- | --- | --- | --- | --- | --- | --- | --- | --- |
| CC(C)NC(=O)CCC(N)C(=O)O (stereo not drawn) [Compound 101] | 0.79 | 0.06 | – | – | – | – | – | – |
| NC(CCC(=O)NCCO)C(=O)O (stereo not drawn) [Compound 102] | 0.44 | 0.46 | – | – | – | – | – | – |
| NC(CCC(=O)NCCCC(=O)O)C(=O)O (stereo not drawn) [Compound 103] | 0.64 | 0.73 | 0.67 | 0.67 | 0.83 | 1.08 | 0.92 | 0.92 |
| C[C@H](CNC(=O)CC[C@H](N)C(=O)O)C(=O)O [Compound 104] | 0.96 | 0.32 | 0.42 | 0.75 | 0.75 | 0.75 | 0.50 | 0.58 |
| COc1ccc(CNC(=O)CCC(N)C(=O)O)cc1 (stereo not drawn) [Compound 105] | 0.38 | 0.76 | – | – | – | – | – | – |
| NC(CCC(=O)NCCc1ccc(O)cc1)C(=O)O (stereo not drawn) [Compound 106] | 0.33 | 0.51 | – | – | – | – | – | – |
| N=C(N)NCCCC(NC(=O)CCC(=O)O)C(=O)O (stereo not drawn) [Compound 107] | 0.61 | 0.66 | – | – | – | – | – | – |
| N=C(N)NCCCC(NC(=O)c1ccc(O)cc1)C(=O)O (stereo not drawn) [Compound 108] | 0.49 | 0.47 | – | – | – | – | – | – |
| C[C@@H](CNC(=O)CC[C@H](N)C(=O)O)C(=O)O [Compound 109] | 0.58 | 0.50 | 0 | 0.92 | 0.58 | 0.83 | 0.58 | 0.83 |
